According to ChEMBL document CHEMBL1255323, “Prevalence and susceptibility profile of Candida metapsilosis and Candida orthopsilosis: results from population-based surveillance of candidemia in Spain” (2008):
≈ marks a conversion by molar mass, not a printed value. Numbered stars: 1 amine (or outer) side, 2 acyl side, 3 side chain; on linkers, the order of the positions; unused ones are H or OH. Bridge positions count the residues as written; N and C are the ends. Square brackets hold non-standard residues; d marks the D form. Peptide text beside a SMILES is read from it. * marks the point of attachment. hTyr(3S-OH,4S-OH,3'-OSO3H) = N[C@H](C(=O)O)[C@H](O)[C@@H](O)c1ccc(O)c(OS(=O)(=O)O)c1; pTerphenylCO(4''-OnC5H11) = CCCCCOc1ccc(-c2ccc(-c3ccc(C(=O)*)cc3)cc2)cc1; Orn(4R-OH,5R-OH) = O=C([C@H](C[C@@H](O)[C@@H](O)N[*:3])N[*:1])[*:2]; hTyr(3S-OH,4S-OH) = N[C@H](C(=O)O)[C@H](O)[C@@H](O)c1ccc(O)cc1; Pro(3S-OH,4S-Me) = C[C@H]1CN[C@H](C(=O)O)[C@H]1O; X1 = CCCCCOc1ccc(-c2cc(-c3ccc(C(=O)*)cc3)no2)cc1; Gln(3R-OH) = NC(=O)C[C@@H](O)[C@H](N)C(=O)O; Hyp = O=C(O)[C@@H]1C[C@@H](O)CN1

Assays:
Type in all cases: functional
Candida parapsilosis = experiment: Antifungal activity against Candida parapsilosis by microdilution AFST-EUCAST method; details: Lodderomyces parapsilosis
Candida orthopsilosis = experiment: Antifungal activity against Candida orthopsilosis by microdilution AFST-EUCAST method; details: Lodderomyces orthopsilosis
Candida metapsilosis = experiment: Antifungal activity against Candida metapsilosis by microdilution AFST-EUCAST method; details: Lodderomyces metapsilosis

Row | Compound | MIC (Candida parapsilosis) [mg/L] | MIC50 (Candida parapsilosis) [mg/L] | MIC (Candida orthopsilosis) [mg/L] | MIC50 (Candida orthopsilosis) [mg/L] | MIC (Candida metapsilosis) [mg/L] | MIC50 (Candida metapsilosis) [mg/L]
1 | C[C@@H]1[C@H](O)[C@@H](C)/C=C/C=C/C=C/C=C/C=C/C=C/C=C/[C@H](O[C@@H]2O[C@H](C)[C@@H](O)[C@H](N)[C@@H]2O)C[C@@H]2O[C@](O)(C[C@@H](O)C[C@@H](O)[C@H](O)CC[C@@H](O)C[C@@H](O)CC(=O)O[C@H]1C)C[C@H](O)[C@H]2C(=O)O [AMPHOTERICIN B] | 0.14 (≈ 0.152 µM) | 0.12 (≈ 0.13 µM) | 0.06 (≈ 0.0649 µM) | 0.06 (≈ 0.0649 µM) | 0.08 (≈ 0.0866 µM) | 0.09 (≈ 0.0974 µM)
2 | CCCCCOc1ccc(-c2ccc(-c3ccc(C(=O)N[C@H]4C[C@@H](O)[C@@H](O)NC(=O)[C@@H]5[C@@H](O)[C@@H](C)CN5C(=O)[C@H]([C@@H](C)O)NC(=O)[C@H]([C@H](O)[C@@H](O)c5ccc(O)cc5)NC(=O)[C@@H]5C[C@@H](O)CN5C(=O)[C@H]([C@@H](C)O)NC4=O)cc3)cc2)cc1 [ANIDULAFUNGIN] ({pTerphenylCO(4''-OnC5H11)}-[Orn(4R-OH,5R-OH)]T[Hyp][hTyr(3S-OH,4S-OH)]T[Pro(3S-OH,4S-Me)]; lactam 1-C) | 0.88 (≈ 0.772 µM) | 1 (≈ 0.877 µM) | 0.38 (≈ 0.333 µM) | 0.5 (≈ 0.438 µM) | 0.17 (≈ 0.149 µM) | 0.18 (≈ 0.158 µM)
3 | CC[C@H](C)C[C@H](C)CCCCCCCCC(=O)N[C@H]1C[C@@H](O)[C@@H](NCCN)NC(=O)[C@@H]2[C@@H](O)CCN2C(=O)[C@H]([C@H](O)CCN)NC(=O)[C@H]([C@H](O)[C@@H](O)c2ccc(O)cc2)NC(=O)[C@@H]2C[C@@H](O)CN2C(=O)[C@H]([C@@H](C)O)NC1=O [CASPOFUNGIN] | 0.4 (≈ 0.366 µM) | 0.5 (≈ 0.457 µM) | 0.16 (≈ 0.146 µM) | 0.12 (≈ 0.11 µM) | 0.22 (≈ 0.201 µM) | 0.25 (≈ 0.229 µM)
4 | OC(Cn1cncn1)(Cn1cncn1)c1ccc(F)cc1F [FLUCONAZOLE] | 0.37 (≈ 1.21 µM) | 0.5 (≈ 1.63 µM) | 0.5 (≈ 1.63 µM) | 0.5 (≈ 1.63 µM) | 1.26 (≈ 4.11 µM) | 1 (≈ 3.27 µM)
5 | Nc1nc(=O)[nH]cc1F [FLUCYTOSINE] | 0.15 (≈ 1.16 µM) | 0.12 (≈ 0.93 µM) | 0.12 (≈ 0.93 µM) | 0.12 (≈ 0.93 µM) | 0.14 (≈ 1.08 µM) | 0.12 (≈ 0.93 µM)
6 | CCC(C)n1ncn(-c2ccc(N3CCN(c4ccc(OCC5COC(Cn6cncn6)(c6ccc(Cl)cc6Cl)O5)cc4)CC3)cc2)c1=O (stereo not given) [ITRACONAZOLE] | 0.02 (≈ 0.0283 µM) | 0.03 (≈ 0.0425 µM) | 0.04 (≈ 0.0567 µM) | 0.03 (≈ 0.0425 µM) | 0.04 (≈ 0.0567 µM) | 0.04 (≈ 0.0567 µM)
7 | CCCCCOc1ccc(-c2cc(-c3ccc(C(=O)N[C@H]4C[C@@H](O)[C@@H](O)NC(=O)[C@@H]5[C@@H](O)[C@@H](C)CN5C(=O)[C@H]([C@H](O)CC(N)=O)NC(=O)[C@H]([C@H](O)[C@@H](O)c5ccc(O)c(OS(=O)(=O)O)c5)NC(=O)[C@@H]5C[C@@H](O)CN5C(=O)[C@H]([C@@H](C)O)NC4=O)cc3)no2)cc1 [MICAFUNGIN] (X1-[Orn(4R-OH,5R-OH)]T[Hyp][hTyr(3S-OH,4S-OH,3'-OSO3H)][Gln(3R-OH)][Pro(3S-OH,4S-Me)]; lactam 1-C) | 0.73 (≈ 0.575 µM) | 1 (≈ 0.787 µM) | 0.25 (≈ 0.197 µM) | 0.25 (≈ 0.197 µM) | 0.28 (≈ 0.22 µM) | 0.25 (≈ 0.197 µM)
8 | CC[C@@H]([C@H](C)O)n1ncn(-c2ccc(N3CCN(c4ccc(OC[C@@H]5CO[C@@](Cn6cncn6)(c6ccc(F)cc6F)C5)cc4)CC3)cc2)c1=O [POSACONAZOLE] | 0.02 (≈ 0.0285 µM) | 0.02 (≈ 0.0285 µM) | 0.03 (≈ 0.0428 µM) | 0.03 (≈ 0.0428 µM) | 0.02 (≈ 0.0285 µM) | 0.02 (≈ 0.0285 µM)
9 | C[C@@H](c1nc(-c2ccc(C#N)cc2)cs1)[C@](O)(Cn1cncn1)c1ccc(F)cc1F [RAVUCONAZOLE] | 0.01 (≈ 0.0229 µM) | 0.02 (≈ 0.0457 µM) | 0.02 (≈ 0.0457 µM) | 0.02 (≈ 0.0457 µM) | 0.02 (≈ 0.0457 µM) | 0.02 (≈ 0.0457 µM)
10 | C[C@@H](c1ncncc1F)[C@](O)(Cn1cncn1)c1ccc(F)cc1F [VORICONAZOLE] | 0.02 (≈ 0.0573 µM) | 0.02 (≈ 0.0573 µM) | 0.03 (≈ 0.0859 µM) | 0.03 (≈ 0.0859 µM) | 0.03 (≈ 0.0859 µM) | 0.03 (≈ 0.0859 µM)
